Reference: US9809621B2, “Stable peptide-based PACE4 inhibitors” (SOCPRA SCIENCES SANTÉ ET HUMAINES S.E.C., priority 2011, dated 2017)
Several values for one entry are separate records, joined by “and”; a condition that tells them apart may be missing. Equal entries are not always repeated. Where two headings read alike, the source gives them in different places. Numbered stars: 1 amine (or outer) side, 2 acyl side, 3 side chain; on linkers, the order of the positions; unused ones are H or OH. Square brackets hold non-standard residues; d marks the D form. Peptide text beside a SMILES is read from it. * marks the point of attachment. NH(4-amidinobenzyl) = N=C(N)c1ccc(CN*)cc1; X1 = CC(C)CN(CC(=O)[*:2])N[*:1]; X2 = N=C(N)NC/C=C/CN*

Columns and labels:
LNCaP cells [1] = experiment: Cell cycle analysis (DNA content, flow cytometry) of LNCaP cells; format: cell-based; details: for Cell cycle effect (in words): 100 μM or 200 μM, FIG. 11; for Cells in G0/G1 phase / Cells in G2/M phase / Cells in S phase / Cells in Sub-G1 (hypodiploid DNA content, apoptotic): 96 hours
Procedure: In order to obtain further support for the antiproliferation effects observed, a DNA content analysis was performed on LNCaP treated cells with 100 μM or 200 μM of ML-peptide and the modified analog […] (FIG. 11). […] Following a 200 μM treatment with the Ac-[D-Leu]LLLRVKR-NH2, a 10% increase in the G0/G1 population was observed along with an increased in cells with hypodiploid DNA content (sub-G1) proportions, which represent apoptotic cells.
To perform cell cycle analysis on LNCaP, 4×10^5 cells are seeded in 10 cm culture dish and grown for 24 hours without treatment. Cells are then treated with vehicle (0.1% DMSO) or with 100 μM or 200 μM of peptides Ac-LLLLRVKR-NH2 or Ac-[D-Leu]LLLRVKR-NH2. Treatments are carried out in complete medium (10% FBS) for a period of 96 hours and cell media is changed every 24 hours to offset peptide degradation. Cells are harvested using trypsin, washed once with PBS, resuspended in 0.5 mL PBS and fixed by drop wise addition of 1.5 mL of ice-cold ethanol. After a 30 minutes incubation at room temperature, cells are washed with PBS and DNA staining is performed in 20 mM HEPES pH 7.2, 0.16M NaCl, 1 mM EGTA buffer containing 10 μg/mL of RNAseA and 10 μg/mL of propidium iodine.
Flow cytometry is performed using a FACScan™ cytometer (Becton Dickinson, Mountain View, Calif.) equipped with a 15 mW argon ion laser tuned at 488 nm. A minimum of 10 000 gated events by sample are acquired. Forward and side scatter signals are used to establish the live gate to exclude debris and cell clumps and a second live gate is set using the FL3-A and FL3-W parameters of the doublet discrimination module (DDM), allowing single cell measurements. The percentages of cells in different phases of cell cycle are calculated by ModFit software (Verity Software House, Topsham, Me.).

furin = furin (Homo sapiens, UniProt P09958); experiment: Inhibition constant (Ki) for furin; format: biochemical
[2] = Plasmatic half-life / degradation by plasmatic protease; format: in vitro ADME; details: for half-life: plasma
Procedure: (§1) Multiple multi-Leu variants described in Table 1 were tested for their stability following incubation with DU145 cells, wherein their cellular stability and plasmatic half-life was measured.
Stabilisation strategy for multi-Leu variants was also assessed in presence of plasmatic protease. 8 variants protected at their N-terminal leucines were tested in order to establish their level of degradation since it is expected that N-terminal degradation will occur in absence of any modifications other than acetylation. Variants tested with azaβ3-leucine at each individual position and “click” bonds between the different leucines of the N-terminal part of the variants were protected against degradation (see FIG. 3 for modifications).

PACE4 = molecular target: T1, PACE4 (Homo sapiens, UniProt P29122); experiment: Inhibition constant (Ki) for PACE4; format: biochemical
T1 sequence (P29122 150-969): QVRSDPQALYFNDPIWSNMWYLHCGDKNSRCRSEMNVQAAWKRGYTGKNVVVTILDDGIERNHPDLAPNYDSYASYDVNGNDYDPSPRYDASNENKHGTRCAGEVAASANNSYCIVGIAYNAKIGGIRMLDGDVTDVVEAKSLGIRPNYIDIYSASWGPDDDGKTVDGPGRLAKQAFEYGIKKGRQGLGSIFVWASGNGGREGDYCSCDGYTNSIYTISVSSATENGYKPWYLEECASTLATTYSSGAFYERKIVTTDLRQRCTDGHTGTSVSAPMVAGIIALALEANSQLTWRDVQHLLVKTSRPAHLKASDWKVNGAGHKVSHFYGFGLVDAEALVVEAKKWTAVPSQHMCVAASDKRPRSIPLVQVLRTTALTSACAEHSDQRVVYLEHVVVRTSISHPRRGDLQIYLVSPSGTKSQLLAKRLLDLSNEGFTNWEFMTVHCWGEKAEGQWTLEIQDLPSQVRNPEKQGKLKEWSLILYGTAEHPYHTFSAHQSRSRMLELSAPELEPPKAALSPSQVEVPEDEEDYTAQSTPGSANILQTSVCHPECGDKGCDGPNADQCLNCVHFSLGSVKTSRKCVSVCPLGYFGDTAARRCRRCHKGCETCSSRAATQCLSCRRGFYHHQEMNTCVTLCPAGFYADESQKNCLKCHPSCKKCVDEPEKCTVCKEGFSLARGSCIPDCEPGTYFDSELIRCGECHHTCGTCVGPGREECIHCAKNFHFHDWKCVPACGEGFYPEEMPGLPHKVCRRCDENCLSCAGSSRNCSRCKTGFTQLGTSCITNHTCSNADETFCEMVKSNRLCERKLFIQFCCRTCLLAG

LNCaP cells [3] = details: MTT
LNCaP tumors = experiment: Intratumoral treatment of LNCaP tumors in immunosuppressed mice; details: for Plasmatic concentration of PSA (in words): FIG. 9
DU145 cells [4] = details: MTT; for Anti-proliferative activity in DU145 cells (in words): FIG. 1C, FIG. 7
[5] = Stability following incubation with DU145 cells; format: in vitro ADME, human; details: human, DU145 cells, Table 1, read-out: Stability (% remaining after 48 h)
Procedure: as §1
(§2) Consequently, the multi-Leu peptide was further modified by the addition of amino acid analogues and/or with pseudo peptide bounds which increase the protection of the modified peptides from peptidase and protease degradation. Gains in stability were also measured in vitro in tumoral prostatic human cells (DU145). Increase in stability of the variants was also measured in vivo (FIG. 4).

Fig. 4 = experiment: Fig. 4
Excerpt: Table printed on a drawing sheet, Fig. 4
The patent's description of the figure: FIG. 4 illustrates plasmatic half-life curves measured for multi-Leu variants tested.
First reader's note: The table also serves as legend for the numbered curves of the adjacent plot; the unit (h) and ± errors stand in the cells, with decimal commas as printed.

DU145 cells [6] = experiment: Stability following incubation with DU145 cells; format: in vitro ADME, human
Procedure: as §1, §2

PC3 cells = experiment: MTT proliferation assay in PC3 cells; format: cell-based; details: FIG. 1B
[7] = read-out: IC50 (μM) DU145, Table 4, DU145 cells
[8] = read-out: IC50 cellular proliferation LNCaP, FIG. 1B/1D
[9] = read-out: IC50 cellular proliferation DU145, FIG. 1B/1C

furin, sequence (P09958 108-794): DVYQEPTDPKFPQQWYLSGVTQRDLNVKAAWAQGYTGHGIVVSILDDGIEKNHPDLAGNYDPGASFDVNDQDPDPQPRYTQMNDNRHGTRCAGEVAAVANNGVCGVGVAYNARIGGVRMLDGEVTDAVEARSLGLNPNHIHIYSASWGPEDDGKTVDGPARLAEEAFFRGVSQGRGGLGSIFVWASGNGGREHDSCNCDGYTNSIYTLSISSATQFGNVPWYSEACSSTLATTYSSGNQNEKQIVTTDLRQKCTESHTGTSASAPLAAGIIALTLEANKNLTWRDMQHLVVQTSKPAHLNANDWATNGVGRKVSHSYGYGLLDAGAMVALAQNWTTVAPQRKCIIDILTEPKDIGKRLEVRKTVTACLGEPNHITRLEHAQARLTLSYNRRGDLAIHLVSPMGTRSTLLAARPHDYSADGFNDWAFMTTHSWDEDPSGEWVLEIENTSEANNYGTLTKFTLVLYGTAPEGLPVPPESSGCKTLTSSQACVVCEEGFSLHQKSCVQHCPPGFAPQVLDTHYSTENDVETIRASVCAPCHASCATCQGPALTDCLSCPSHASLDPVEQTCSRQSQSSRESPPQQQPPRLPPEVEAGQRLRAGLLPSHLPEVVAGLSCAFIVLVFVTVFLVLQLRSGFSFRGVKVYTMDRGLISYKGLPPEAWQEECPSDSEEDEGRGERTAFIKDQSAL

## CC(=O)N[C@H](CC(C)C)C(=O)N[C@@H](CC(C)C)C(=O)N[C@@H](CC(C)C)C(=O)N[C@@H](CC(C)C)C(=O)N[C@@H](CCCNC(=N)N)C(=O)N[C@H](C(=O)N[C@@H](CCCCN)C(=O)N[C@@H](CCCNC(=N)N)C(N)=O)C(C)C [[D-Leu]^P8-ML, Ac-[D-Leu]-LLLRVKR-NH2]
LNCaP cells [1]
  Cell cycle effect (in words): dose-dependant G0/G1 accumulation and S phase decrease
LNCaP cells [1]; 100 μM
  Cells in G0/G1 phase: 79.3 ± 1.0%
  Cells in G2/M phase: 8.9 ± 0.5%
  Cells in S phase: 11.8 ± 0.5%
  Cells in Sub-G1 (hypodiploid DNA content, apoptotic): 0.4 ± 0.6%
LNCaP cells [1]; 200 μM treatment
  Cells with hypodiploid DNA content (sub-G1) proportions (in words): increased
  Increase in the G0/G1 population: 10%
LNCaP cells [1]; 200 μM
  Cells in G0/G1 phase: 83.4 ± 0.0%
  Cells in G2/M phase: 8.3 ± 0.1%
  Cells in S phase: 8.4 ± 0.1%
  Cells in Sub-G1 (hypodiploid DNA content, apoptotic): 11.8 ± 2.7%
furin
  Ki: 516 nM
[2]; Table 1
  plasmatic half-life: 6.3 h
  half-life: ~9 h
[2]; Table 2
  half-life: 6.3 h
PACE4; Ki PACE4 (nM), Table 3
  Ki: 3 nM
PACE4; Ki for PACE4, Table 1
  Ki: 52 nM and 33 nM
PACE4; Table 3
  Selectivity index PACE4/furin: ≈20
LNCaP cells [3]; read-out: IC50 (μM) LNCaP, Table 4, LNCaP cells
  IC50: 181 ± 59 µM
LNCaP tumors; LNCaP tumors
  Plasmatic concentration of PSA (in words): decreased
DU145 cells [4]; [7]
  IC50: 66 ± 26 µM
[5]
  remaining at 48 h: 48%

## Ac-LLLLRVKR-NH2 [6: ML]
Fig. 4
  plasmatic half-life: 2,1±0,2h

## CC(=O)N[C@@H](CC(C)C)C(=O)N[C@@H](CC(C)C)C(=O)N[C@@H](CC(C)C)C(=O)N[C@@H](CC(C)C)C(=O)N[C@@H](CCCN=C(N)N)C(=O)N[C@H](C(=O)N[C@@H](CCCCN)C(=O)NCc1ccc(C(=N)N)cc1)C(C)C [ML-[AMBA]^P1, Ac-LLLLRVK-[AMBA]] (Ac-LLLLRVK-{NH(4-amidinobenzyl)})
DU145 cells [6]; Table 1
  Stability (% remaining after 48 h): ≃80%
DU145 cells [6]; Table 2
  Stability (% remaining after 48 h): ≃80%

## Ac-LLLLRVKR-NH2 [Multi-Leu (ML), Ac-LLLLRVKR-NH2, reference compound]
LNCaP cells [1]
  Cell cycle effect (in words): dose-dependant G0/G1 accumulation and S phase decrease
LNCaP cells [1]; 100 μM
  Cells in G0/G1 phase: 79.7 ± 0.4%
  Cells in G2/M phase: 8.4 ± 0.6%
  Cells in S phase: 11.9 ± 0.2%
  Cells in Sub-G1 (hypodiploid DNA content, apoptotic): 1.0 ± 0.0%
LNCaP cells [1]; 200 μM
  Cells in G0/G1 phase: 81.5 ± 0.0%
  Cells in G2/M phase: 9.2 ± 0.1%
  Cells in S phase: 9.3 ± 0.1%
  Cells in Sub-G1 (hypodiploid DNA content, apoptotic): 4.8 ± 1.7%
PC3 cells
  Inhibition of PC3 cell proliferation (in words): very poor inhibition
furin
  Ki: 722 nM
[2]; Table 1
  half-life: 2.1 ± 0.2 h
[2]; Table 2
  half-life: 2.1 ± 0.2 h
PACE4; Ki for PACE4, Table 1
  Ki: 38 nM
PACE4; Table 3
  Selectivity index PACE4/furin: 19
LNCaP cells [3]; [8]
  IC50: 180 ± 57 µM
DU145 cells [4]; [7]
  IC50: 187 ± 44 µM
DU145 cells [4]; [9]
  IC50: 103 ± 29 µM
DU145 cells [6]; Table 2
  Stability (% remaining after 48 h): 56%
[5]
  remaining at 48 h: 56%

## CC(=O)N[C@@H](CC(C)C)C(=O)N[C@@H](CC(C)C)C(=O)N[C@@H](CC(C)C)C(=O)N[C@@H](CC(C)C)C(=O)N[C@@H](CCCNC(=N)N)C(=O)N[C@H](C(=O)N[C@@H](CCCCN)C(=O)N[C@H](CCCNC(=N)N)C(N)=O)C(C)C [Ac-LLLLRVK-[DArg]-NH2] (Ac-LLLLRVK[dR]-NH2)
furin; read-out: Ki for furin
  Ki: 2600 nM
PACE4; read-out: Ki for PACE4
  Ki: 1380 nM
LNCaP cells [3]; FIG. 1D
  Anti-proliferative activity in LNCaP cells (in words): poorly
LNCaP cells [3]; [8]
  IC50: 389 ± 12 µM
DU145 cells [4]
  Anti-proliferative activity in DU145 cells (in words): poorly
DU145 cells [4]; [9]
  IC50: 439 ± 82 µM

## CC(=O)NN(CC(=O)N[C@@H](CC(C)C)C(=O)N[C@@H](CC(C)C)C(=O)N[C@@H](CC(C)C)C(=O)N[C@@H](CCCNC(=N)N)C(=O)N[C@H](C(=O)N[C@@H](CCCCN)C(=O)NC/C=C/CNC(=N)N)C(C)C)CC(C)C [[Azaβ3L]^P8-ML-[ΔR-CO2]^P1, Ac-[Azaβ3L]LLLRVKR-[ΔR-COO]] (Ac-[X1]LLLRVK-X2)
[2]; Table 1
  half-life: 5.67 ± 0.07 h
[2]; Table 2
  half-life: 5.67 ± 0.07 h
DU145 cells [4]
  Anti-proliferative activity in DU145 cells (in words): IC50 lower than the IC50 of the multi-Leu control

## CC(=O)N[C@@H](CC(C)C)C(=O)N[C@@H](CC(C)C)C(=O)N[C@@H](CC(C)C)C(=O)N[C@@H](CC(C)C)C(=O)N[C@@H](CCCNC(=N)N)C(=O)N[C@H](C(=O)N[C@@H](CCCCN)C(=O)NC/C=C/CNC(=N)N)C(C)C [ML-[ΔR-CO2]^P1, Ac-LLLLRVK-[ΔR-COO]] (Ac-LLLLRVK-X2)
furin; Table 3, read-out: Ki Furin
  Ki: 160 nM
PACE4
  Selectivity for PACE4 over furin (time more selective): 11.4
PACE4; Table 1, read-out: Ki for PACE4
  Ki: 14 nM
PACE4; Table 3
  Selectivity index PACE4/furin: 11.4
DU145 cells [6]; Table 2
  Stability (% remaining after 48 h): 70%
[5]
  remaining at 48 h: 70%

## CC(=O)N[C@H](CC(C)C)C(=O)N[C@@H](CC(C)C)C(=O)N[C@@H](CC(C)C)C(=O)N[C@@H](CC(C)C)C(=O)N[C@@H](CCCNC(=N)N)C(=O)N[C@H](C(=O)N[C@@H](CCCCN)C(=O)NCc1ccc(C(=N)N)cc1)C(C)C [[D-Leu]^P8-ML-[AMBA]^P1, Ac-[D-Leu]-LLLRVK-[AMBA]] (Ac-[dL]LLLRVK-{NH(4-amidinobenzyl)})
[2]; Table 1
  half-life: 11.3 h
[2]; Table 2
  half-life: 11.3 h
LNCaP tumors; LNCaP tumors
  Plasmatic concentration of PSA (in words): decreased
LNCaP tumors; excised LNCaP tumors, FIG. 10A
  Appearance of excised tumors (in words): smaller and have a white appearance
LNCaP tumors; immunocytochemistry, vs ML-peptide treated and untreated tumors, FIG. 10B
  Level of p27KIP in excised tumors (in words): increased
LNCaP tumors; immunocytochemistry, vs ML-peptide treated and untreated tumors, FIG. 10C
  Level of Ki67 in excised tumors (in words): decreased
LNCaP tumors; intratumorally 50 μg/48 h, LNCaP tumors, immunosuppressed mice, FIG. 8
  Tumor volume (in words): consistently the more potent compound
